Values of other authors in PMC5944417 (Heliyon, 2018).
pKi: −log10 of the molar value.

How the values were obtained:
Conditions in all cases: ref Maes et al., 2007
[1] = system: papain
[2] = system: porcine kallikrein
[3] = molecular target: plasmin
[4] = molecular target: trypsin
[5] = molecular target: cathepsin B
[6] = system: endoproteinase Lys-C

pKi [3]: 8.46
pKi [4]: 8.47
pKi [5]: 8.39
inhibition [6]: inhibited
Structure (SMILES): CC(=O)N[C@@H](CC(C)C)C(=O)N[C@@H](CC(C)C)C(=O)N[C@H](C=O)CCCNC(=N)N [Leupeptin, N-acetyl-L-leucyl-L-leucyl-L-argininal]
inhibition [1]: inhibited
inhibition [2]: inhibited
